Source: patent US10988429B2, “Quinochalcone compound and uses thereof for treating cancer or inflammation” (CHON THERAPEUTICS INC., LTD., priority 2017, dated 2021)

Tests used:
[1] = system: mice melanoma B16 cells; test: B16 tumor-bearing C57 mice, HB-48 versus DMF (Example 3); format: in vivo, mouse; conditions: intratumor injection 5 mg/kg every two days for 10 days
Procedure: Establishment of tumor-bearing mice model: 1×10^5 mice melanoma B16 cells were transplanted into 4˜6 weeks old C57BL/C mice (C57 mice). The weight of each mouse was about 20 g. Tumors were visible on day 7. Mice were treated as follows when the tumor sizes were 5 mm×5 mm. • Control group 1 (PBS): Intratumor injection with PBS. • Experiment group 2 (HB-48): Intratumor injection with HB-48 at 5 mg/kg every two days for 10 days. • Experiment group 3 (DMF): Intratumor injection with DMF with 5 mg/kg every two days for 10 days.
Tumor sizes were recorded daily.

[2] = system: A375, B16, MP-1, MCF-7, HL-60, K562 and ALL-1 cells; test: 3D gel culture, clone size, HB-48 alone (Example 1); format: cell-based, human; mouse (B16); conditions: 3D culture; HB-48 1, 5, 10, 20 or 50 μmol/ml; 48 and 96 hours
Procedure: 3D gel technology involves culturing cells in a gel-like matrix. Studies in our lab have shown that cancer cells grown using 3D technology behave more like cancers found in vivo, as cancer cells grown using 3D technology display strong proliferative ability, higher drug resistance, stronger tumorigenicity and greater far-end invasion transfer ability than cancer cells cultured using traditional methods. The following treatments were added to 3D cultures of viable cells. • Control group 1 (Medium): RPMI-1640 medium supplemented with glutamine. • Experiment group1 (HB-48): HB-48 was added to cells at a final concentration of 1 μmol/ml, 5 μmol/ml, 10 μmol/ml, 20 μmol/ml, or 50 μmol/ml in Medium.
Dosing drugs was recorded as day 0. Clone size was determined by taking photographic images 48 and 96 hours after dosing. ImageJ software was used to analyze the size of the clones. The clone sizes in different groups were normalized to the control group on the second day.

[3] = system: A375, B16, MP-1, MCF-7, HL-60, K562 and ALL-1 cells; test: 3D gel culture, number of colonies, HB-48 alone (Example 2); format: cell-based, human; mouse (B16); conditions: 3D culture; HB-48 1, 5, 10, 20 or 50 μmol/ml
Procedure: The following treatments were added to cultures of viable cells. • Control group 1 (Medium): RPMI-1640 medium supplemented with glutamine. • Experiment group1 (HB-48): HB-48 was added to cells at a final concentration of 1 μmol/ml, 5 μmol/ml, 10 μmol/ml, 20 μmol/ml, or 50 μmol/ml in Medium.
The day of drug treatment was recorded as day 0. […] The size of colonies in group control on day 2 is served as control.

[4] = system: PD-1 expression in mouse CD8+ T cells; test: PD-1 expression on activated mouse CD8+ T cells, flow cytometry (Example 8); format: cell-based; conditions: mouse spleen CD8+ T cells activated by anti-CD3/CD28 beads; Kyn 200 μM and HB-48 10 μM; 48 hours
Procedure: Mouse spleen CD8+ T cells were sorted by magnetic beads and seeded in U-bottom 96-well plates (100,000/well) and T cells were activated by anti-CD3/CD28 magnetic beads. The medium was RPMI-1640 plus 10 ng/Mouse IL-2 and […] β-mercaptoethanol. Treatment and dosing is described below: • Control group 1 (PBS): Medium and PBS; • Experimental group 2 (Kyn): Kyn 200 μM was added to the Medium. • Experimental group 3 (Kyn+DMF): Kyn 200 μM and DMF 10 μM were added to the Medium simultaneously. • Experimental group 4 (Kyn+HB-48): Kyn 200 μM and HB-48 10 μM were added to the Medium simultaneously.
(§1) PD-1 expression levels were measured by flow cytometry in each group of T cells at 48 hours.

[5] = system: OVA-B16 cells co-cultured with OT-1 CD8+ T cells; test: Apoptosis of OVA-B16 co-cultured with pretreated OT-1 CD8+ T cells (Example 8); format: cell-based, mouse; conditions: T cells pretreated with HB-48 10 μM for 24 hours; co-culture ratio 1 to 10; 4 hours
Procedure: Spleen CD8+ T cells of OT-1 mice were obtained by magnetic bead sorting, seeded in a U-shaped bottom 96-well plate (100,000 cells/well) and treated as follows. • Control group 1 (PBS): medium plus PBS. • Experimental group 2 (DMF): DMF 10 μM was added to the medium. • Experimental group 3 (HB-48): HB-48 10 μM was added to the medium.
After pretreatment of T cells for 24 hours, 3D cultured OVA-B16 was co-cultured with OT-1 CD8+ T cells at a ratio of 1 to 10, and the apoptosis of OVA-B16 cells was detected by flow cytometry after 4 hours.

[6] = system: OVA-B16 melanoma cells; test: OVA-B16 tumor-bearing C57BL/6 mice, adoptive CD8+ T cells and HB-48 (Example 9); format: in vivo, mouse; conditions: HB-48 intratumoral 5 mg/kg every two days, 10 times, OT-1 T cells 4×10^6 i.v. every 5 days, 3 times
Procedure: Tumor-bearing mice were constructed: OVA-B16 melanoma cells were seeded on C57BL/6 mice (inoculation amount of 1×10^5 cells) for 4-6 weeks. […] When the tumor size reached 5 mm×5 mm, tumor-bearing mice were treated as follows: • Control group 1 (PBS): Intratumoral injection of PBS only. • Experimental group 2 (CD8+ T cells): Tumor bearing mice were intravenously adoptively transferred with 4×10^6 OVA-specific CD8^+ T-cells (OT-1 T-cells) once every 5 days for 3 times. • Experimental group 3 (DMF): Tumor-bearing mice were intratumorally injected with DMF every two days, a total of 10 times, each dose of 5 mg/kg. • Experimental group 4 (HB-48): Tumor-bearing mice were intratumorally injected with HB-48 every two days, a total of 10 times, each dose of 5 mg/kg. • Experimental group 5 (CD8+ T and DMF): Tumor-bearing mice were intravenously transferred with OT-1 T cells every 5 days for 3 times, and intratumorally injected with DMF every two days for 10 times at the same time. • Experimental group 6 (CD8+ T and HB-48): Tumor-bearing mice were intravenously transfered with OT-1 T cells every 5 days for 3 times, and intratumorally injected with HB-48 every two days for 10 times at the same time.
Tumor length and width were measured daily, and tumor volume changes were calculated.

[7] = system: PD-1 expression in human peripheral blood CD8+ T cells; test: PD-1 expression in peripheral blood CD8+ T cells of breast cancer patients (Example 10); format: cell-based; conditions: resting CD8+ T cells of breast cancer patients; HB-48 10 μM; 48 hours; compared with DMF 10 μM
Procedure: Mononuclear cells were obtained from peripheral blood of breast cancer patients using Ficoll. CD8+ T cells were sorted by magnetic beads and plated on U-bottom 96-well plates (100,000 cells/well) supplemented with RPMI-1640 supplemented with 10 ng/mL human IL-2. Dosing by the following groups: • Control group 1 (PBS): medium plus PBS. • Experimental group 2 (DMF): DMF 10 μM was added to the medium. • Experimental group 3 (HB-48): HB-48 10 μM was added to the medium.
as §1

[8] = system: PD-1 expression in human activated CD8+ T cells; test: Kyn-mediated PD-1 upregulation in activated peripheral blood CD8+ T cells of breast cancer patients (Example 10); format: cell-based; conditions: Kyn 200 μM and HB-48 10 μM, 48 hours, compared with DMF 10 μM
Procedure: (§2) Mononuclear cells were obtained from peripheral whole blood of patients with breast cancer using Ficoll. CD8+ T cells were sorted by magnetic beads and plated on 96-well U-shaped bottom plates (100,000 cells/well). T cells were activated by anti-CD3/CD28 magnetic beads. Media was RPMI-1640 plus 10 ng/mL human IL-2. Dosing by the following groups: • Control group 1 (PBS): medium and PBS. • Experimental group 2 (Kyn): Kyn 200 μM was added to the medium. • Experimental group 3 (Kyn+DMF): Kyn 200 μM and DMF 10 μM were added to the medium simultaneously. • Experimental group 4 (Kyn+HB-48): Kyn 200 μM and HB-48 10 μM were added to the medium simultaneously.
as §1

[9] = system: Kyn transporter PAT4; test: Expression of Kyn transporter PAT4 in activated human CD8+ T cells, quantitative PCR (Example 10); format: cell-based; conditions: activated CD8+ T cells of breast cancer patients; Kyn 200 μM with or without HB-48 10 μM; 48 hours
Procedure: as §2
Each group of T cells RNA was extracted after 48 hours, and the expression of PAT4 was detected by fluorescence quantitative PCR.

[10] = system: inflammatory factors of macrophages derived from murine bone marrow; test: Expression of inflammatory factors in bone marrow-derived macrophages, qPCR (Example 13); format: cell-based, mouse; conditions: HB-48 10 μM, 48 h
Procedure: Bone marrow-derived macrophages were obtained from mouse bone marrow cells, RPMI-1640 plus mouse M-CSF 20 ng/mL for 5 days and were treated as follows: • Control group 1 (PBS): medium plus PBS; • Experimental group 2 (HB-48): medium plus HB-48 at a dose of 10 μM. After 48 h, macrophages were collected and the expression of IFN-γ, TNF-α, IL-12p35, IL-12p40 and IL-2 was detected by qPCR in both groups.

In the case of `COc1ccc(-c2cc(=O)c3ccccc3o2)cc1OC` [DMF, 3′,4′-Dimethoxyflavone, reference compound], the “tumor growth (tumor volume)” value [1] is reported as “could inhibit the tumor growth”.

With `COCOC1=CC(=O)/C(=C(O)/C=C/c2ccc(OCOC)cc2)C(=O)C1(CC=C(C)C)CC=C(C)C` [HB-48, 2-[1-hydroxy-3-(4-methoxymethoxyphenyl)allylidene]-5-methoxymethoxy-6,6-diprenylcyclohex-4-ene-1,3-dione] the “growth (relative clone size) of solid tumor and leukemia cells” value [2] was “significantly inhibited the growth of solid tumor and leukemia cells in a concentration-dependent manner”, the “colony numbers of solid tumor cells and leukemia cells” value [3] was “effectively reduced the colony numbers of solid tumor cells and leukemia cells in a dose dependent manner” and the “tumor growth (tumor volume)” value [1] was “shows a significant enhanced anticancer effect”. For the same compound, the “Kyn-mediated upregulation of PD-1 in CD8+ T cells” value [4] was “inhibited Kyn-mediated upregulation of PD-1 in CD8+ T cells more effectively than DMF”, the “percentage of apoptosis of OVA-B16 tumor cells” value [5] was “significantly increased” and the “therapeutic effect (tumor volume)” value [6] was “had a certain therapeutic effect”. The “PD-1 expression in peripheral blood CD8+ T cells” value [7] was “more effectively down-regulated PD-1 expression”, the “Kyn-mediated upregulation of PD-1 in peripheral blood CD8+ T cells” value [8] was “inhibited Kyn-mediated upregulation of PD-1” and the “expression of PAT4 in peripheral blood CD8+ T cells” value [9] was “can down-regulate the expression of PAT4”. For the same compound, the “expression of IFN-γ” value [10] was “significantly reduced”, the “expression of IL-1β” value [10] was “significantly reduced” and the “expression of IL-12p35” value [10] was “significantly reduced”. For the same compound, the “expression of IL-12p40” value [10] was “significantly reduced” and the “expression of TNF-α” value [10] was “significantly reduced”.

In the case of `Nc1ccccc1C(=O)CC(N)C(=O)O` (stereo not shown) [Kyn, Kynurenine, reference compound], the “expression of PAT4 in peripheral blood CD8+ T cells” value [9] is reported as “can up-regulate the expression of its transporter PAT4”.
